Data: patent publication US20260224714A1, “CYCLING LYSOSOMAL TARGETING ANTIBODY CONJUGATES” (Lycia Therapeutics, Inc., priority 2023, published 2026)

Columns and labels:
Format in all cases: cell-based
[1] = tested on: LysoLight-labelled human IgE; assay: Lysosomal degradation of LysoLight-labelled IgE in HepG2 cells, live cell imaging (Example 7); conditions: equimolar conjugate:LysoLight IgE, area under the curve of deep red fluorescence over three days, normalized to unconjugated parent protein
How it was run: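 Conjugate precomplexed 30 min at room temperature with equimolar LysoLight-labelled human IgE, added to Fc-receptor-blocked HepG2 cells at final 100–1.23 nM. Red fluorescence, released on lysosomal cathepsin cleavage, imaged hourly for 72 h starting 1 h post-addition; area under the fluorescence–time curve taken as total degradation.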

[2] = tested on: recombinant IgE; assay: Degradation of super-stoichiometric levels of target in HepG2 cells (Example 13, Table 31); conditions: 1 nM conjugate and 25 nM IgE for three days, (A-B)/C IgE depleted relative to conjugate, average of two replicate wells
How it was run: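 HepG2 cells in EMEM/10% FBS were incubated with 1 nM conjugate plus 25 nM recombinant IgE for 72 h. IgE in medium at start and end quantified by MSD/ELISA-type assay; value is molar equivalents IgE depleted per conjugate, (initial − day-3 IgE)/conjugate concentration, mean of two wells.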

[3] = tested on: Alexa Fluor647 labelled human IgE; assay: Uptake assay: internalization of Alexa Fluor 647 labelled IgE in ASGPR1/2 KO HepG2 cells (Example 6); conditions: equimolar conjugate and AF647 IgE, normalized to unconjugated parent protein
How it was run: (§1)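 HepG2 cells (wild type or ASGPR1/2 KO) pre-blocked with Fc receptor blocker, then exposed 2 h to conjugate precomplexed equimolar with AF647-labelled human IgE (30 min, room temperature) at 300 nM to 1.23 nM final. Median cellular AF647 by flow cytometry, normalized to unconjugated parent protein.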

[4] = tested on: HepG2 cells; assay: Externalization of conjugates from a cell following internalization (cycling), high-throughput format (Example 11); conditions: 50 nM conjugate 1 hour, stringent washes, Alexa Fluor 647-labelled a-human IgG 1 hour, FACS, normalized to unconjugated parent protein, average of two replicate wells
How it was run: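 25,000 HepG2 cells incubated with conjugate for 1 h at indicated concentrations, then chilled and washed (DPBS, pH 5.2 acetate, pH 2.5 EBSS) to strip surface conjugate. Recycled conjugate captured by 1 μg/ml AF647 anti-human IgG in 37 °C EMEM for 1 h; median AF647 by flow cytometry, mean of two wells.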

[5] = tested on: Alexa Fluor647 labelled human IgE; assay: Uptake assay: internalization of Alexa Fluor 647 labelled IgE in wild type HepG2 cells (Example 6); conditions: equimolar conjugate and AF647 IgE, 2 hours, median cellular AF647 intensity by flow cytometry, normalized to unconjugated parent protein
How it was run: as §1

[6] = tested on: human IgE; assay: Degradation of initial and subsequent dose of target in HepG2 cells (Example 12, Table 30); conditions: normalized to unconjugated; for Normalized Fluorescence Post Wash Median Green: after wash, probe-conjugated IgE added for 4 hours, subsequent dose of target; for Normalized Fluorescence Precomplex Median Deep Red: precomplexed equimolar conjugate:IgE (cathepsin-cleavable quenched fluorescent probe) added for 2 hours, initial dose of target
How it was run: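 HepG2 cells exposed 2 h to conjugate precomplexed (30 min, 37 °C, equimolar) with 647-quenched-probe human IgE, acid/ice washed, then given 488-probe IgE without conjugate for 4 h. Median 647 (initial) and 488 (recycled) fluorescence by flow cytometry, normalised to unconjugated parent; mean of two wells.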

Row | SMILES | Normalized Fluorescence 3.7 nM [1] | Normalized Fluorescence 100 nM [1] | Average Degradation (Molar equivalents) [2] | Normalized Fluorescence 100 nM ASGPR KO [3] | Normalized Fluorescence [4] | Normalized Fluorescence 3.7 nM WT [5] | Normalized Fluorescence 100 nM WT [5] | Normalized Fluorescence Post Wash Median Green [6] | Normalized Fluorescence Precomplex Median Deep Red [6]
1 | O=C(CCOCCOCCOCCNS(=O)(=O)c1ccc(N2C(=O)C=CC2=O)cc1)NC(CCCNC(=O)NCCOCCOCCOCc1cn([C@H]2[C@H]3OC[C@](CO)(O3)[C@H](O)[C@@H]2O)nn1)(CCCNC(=O)NCCOCCOCCOCc1cn([C@H]2[C@H]3OC[C@](CO)(O3)[C@H](O)[C@@H]2O)nn1)CCCNC(=O)NCCOCCOCCOCc1cn([C@H]2[C@H]3OC[C@](CO)(O3)[C@H](O)[C@@H]2O)nn1 [Compound 2328] | 4.4 | 2.5 | −0.3 Molar equivalents | 1.1 | 15.1 | 29.7 | 146.5 | 1.8 | 2.4
2 | CC(=O)N[C@@H]1[C@@H](O)[C@@H](O)[C@@H](CO)O[C@@H]1c1cn(CCOCCOCCNC(=O)NCCCC(CCCNC(=O)NCCOCCOCCn2cc([C@H]3O[C@H](CO)[C@H](O)[C@H](O)[C@H]3NC(C)=O)nn2)(CCCNC(=O)NCCOCCOCCn2cc([C@H]3O[C@H](CO)[C@H](O)[C@H](O)[C@H]3NC(C)=O)nn2)NC(=O)CCOCCOCCOCCNS(=O)(=O)c2ccc(N3C(=O)C=CC3=O)cc2)nn1 [Compound 2329] | 11.6 | 3.0 | 4.7 Molar equivalents | 1.1 | 40.3 | 56.3 | 201.8 | 3.0 | 3.3
3 | CCC[C@H]1O[C@H](CO)[C@H](O)[C@H](O)[C@H]1Nc1nccc(OCCOCCOCCNC(=O)NCCCC(CCCNC(=O)NCCOCCOCCOc2ccnc(N[C@@H]3[C@@H](O)[C@@H](O)[C@@H](CO)O[C@@H]3CCC)n2)(CCCNC(=O)NCCOCCOCCOc2ccnc(N[C@@H]3[C@@H](O)[C@@H](O)[C@@H](CO)O[C@@H]3CCC)n2)NC(=O)CCOCCOCCOCCNS(=O)(=O)c2ccc(N3C(=O)C=CC3=O)cc2)n1 [Compound 2330] | 8.1 | 2.4 | 2.8 Molar equivalents | 1.1 | 42.9 | 54.5 | 166.6 | 2.9 | 3.0
4 | CC(=O)N[C@H]1[C@H](OCCCCC(=O)NCCCNC(=O)CCOCC(COCCC(=O)NCCCNC(=O)CCCCO[C@@H]2O[C@H](CO)[C@H](O)[C@H](O)[C@H]2NC(C)=O)(COCCC(=O)NCCCNC(=O)CCCCO[C@@H]2O[C@H](CO)[C@H](O)[C@H](O)[C@H]2NC(C)=O)NC(=O)CCCCCCCCCCC(=O)NCCN2C(=O)C=CC2=O)O[C@H](CO)[C@H](O)[C@@H]1O [Compound 2401-C] | 1.1 | 1.8 | −1.0 Molar equivalents | 1.2 | 3.2 | 10.3 | 44.7 | 1.2 | 1.7
5 | CC(=O)N[C@H]1[C@H](OCCOCCOCCOCCNC(=O)CCOCC(COCCC(=O)NCCOCCOCCOCCO[C@@H]2O[C@H](CO)[C@H](O)[C@H](O)[C@H]2NC(C)=O)(COCCC(=O)NCCOCCOCCOCCO[C@@H]2O[C@H](CO)[C@H](O)[C@H](O)[C@H]2NC(C)=O)NC(=O)CCOCCOCCOCCOCCNC(=O)c2ccc(N3C(=O)C=CC3=O)cc2)O[C@H](CO)[C@H](O)[C@@H]1O [Compound 2402-C] | 2.2 | 2.1 | 0.7 Molar equivalents | 1.3 | 10.5 | 19.6 | 84.3 | 1.6 | 2.1
